Reference: patent US10189853B2, “Conformationally restricted 4-substituted-2,6-dimethylfuro[2,3-d]pyrimidines as anti-tumor agents” (DUQUESNE UNIVERSITY OF THE HOLY SPIRIT, priority 2014, dated 2019)

Columns and labels:
NCI-H322M = experiment: NCI 60 cell line panel; type: cell-based; conditions: Homo sapiens, NSCLC
DU-145 = experiment: NCI 60 cell line panel; type: cell-based; conditions: Homo sapiens, Prostate Cancer
SK-MEL-28 = experiment: NCI 60 cell line panel; type: cell-based; conditions: Homo sapiens, Melanoma
SF-295 = experiment: NCI 60 cell line panel; type: cell-based; conditions: Homo sapiens, CNS Cancer
VEGFR-2 = VEGFR-2 (Homo sapiens (Human), UniProt P35968); experiment: VEGFR-2 kinase inhibition, phosphotyrosine ELISA cytoblot; type: cell-based; conditions: for IC50: U251 cells, phosphotyrosine ELISA
[1] = tested on: colchicine site on tubulin; experiment: Inhibition of [3H]colchicine binding
SNB-19 = experiment: NCI 60 cell line panel; type: cell-based; conditions: Homo sapiens, CNS Cancer
SK-MEL-2 = experiment: NCI 60 cell line panel; type: cell-based; conditions: Homo sapiens
MDA-MB-468 = experiment: NCI 60 cell line panel; type: cell-based; conditions: Homo sapiens, Breast Cancer
MALME-3M = experiment: NCI 60 cell line panel; type: cell-based; conditions: Homo sapiens, Melanoma
NCI-H23 = experiment: NCI 60 cell line panel; type: cell-based; conditions: Homo sapiens, NSCLC
A549/ATCC = experiment: NCI 60 cell line panel; type: cell-based; conditions: Homo sapiens, NSCLC
A498 = experiment: NCI 60 cell line panel; type: cell-based; conditions: Homo sapiens, Renal Cancer
MDA-435 cells = experiment: Antiproliferative SRB assay; type: cell-based; conditions: MDA435, 48 h, read-out: IC50 ± SD in MDA-435 cells
RPMI-8226 = experiment: NCI 60 cell line panel; type: cell-based; conditions: Homo sapiens, Leukemia
NCI-H226 = experiment: NCI 60 cell line panel; type: cell-based; conditions: Homo sapiens, NSCLC
PDGFR-β = PDGFR-β (Homo sapiens (Human), UniProt P09619); experiment: PDGFR-β kinase inhibition, phosphotyrosine ELISA cytoblot; type: cell-based
SR = experiment: NCI 60 cell line panel; type: cell-based; conditions: Homo sapiens, Leukemia
[2] = tested on: M6/6 cells (SK-OV-3 expressing Pgp); experiment: Antiproliferative SRB assay; conditions: M6/6 (Pgp) vs SKOV3

VEGFR-2, sequence (P35968 20-1356): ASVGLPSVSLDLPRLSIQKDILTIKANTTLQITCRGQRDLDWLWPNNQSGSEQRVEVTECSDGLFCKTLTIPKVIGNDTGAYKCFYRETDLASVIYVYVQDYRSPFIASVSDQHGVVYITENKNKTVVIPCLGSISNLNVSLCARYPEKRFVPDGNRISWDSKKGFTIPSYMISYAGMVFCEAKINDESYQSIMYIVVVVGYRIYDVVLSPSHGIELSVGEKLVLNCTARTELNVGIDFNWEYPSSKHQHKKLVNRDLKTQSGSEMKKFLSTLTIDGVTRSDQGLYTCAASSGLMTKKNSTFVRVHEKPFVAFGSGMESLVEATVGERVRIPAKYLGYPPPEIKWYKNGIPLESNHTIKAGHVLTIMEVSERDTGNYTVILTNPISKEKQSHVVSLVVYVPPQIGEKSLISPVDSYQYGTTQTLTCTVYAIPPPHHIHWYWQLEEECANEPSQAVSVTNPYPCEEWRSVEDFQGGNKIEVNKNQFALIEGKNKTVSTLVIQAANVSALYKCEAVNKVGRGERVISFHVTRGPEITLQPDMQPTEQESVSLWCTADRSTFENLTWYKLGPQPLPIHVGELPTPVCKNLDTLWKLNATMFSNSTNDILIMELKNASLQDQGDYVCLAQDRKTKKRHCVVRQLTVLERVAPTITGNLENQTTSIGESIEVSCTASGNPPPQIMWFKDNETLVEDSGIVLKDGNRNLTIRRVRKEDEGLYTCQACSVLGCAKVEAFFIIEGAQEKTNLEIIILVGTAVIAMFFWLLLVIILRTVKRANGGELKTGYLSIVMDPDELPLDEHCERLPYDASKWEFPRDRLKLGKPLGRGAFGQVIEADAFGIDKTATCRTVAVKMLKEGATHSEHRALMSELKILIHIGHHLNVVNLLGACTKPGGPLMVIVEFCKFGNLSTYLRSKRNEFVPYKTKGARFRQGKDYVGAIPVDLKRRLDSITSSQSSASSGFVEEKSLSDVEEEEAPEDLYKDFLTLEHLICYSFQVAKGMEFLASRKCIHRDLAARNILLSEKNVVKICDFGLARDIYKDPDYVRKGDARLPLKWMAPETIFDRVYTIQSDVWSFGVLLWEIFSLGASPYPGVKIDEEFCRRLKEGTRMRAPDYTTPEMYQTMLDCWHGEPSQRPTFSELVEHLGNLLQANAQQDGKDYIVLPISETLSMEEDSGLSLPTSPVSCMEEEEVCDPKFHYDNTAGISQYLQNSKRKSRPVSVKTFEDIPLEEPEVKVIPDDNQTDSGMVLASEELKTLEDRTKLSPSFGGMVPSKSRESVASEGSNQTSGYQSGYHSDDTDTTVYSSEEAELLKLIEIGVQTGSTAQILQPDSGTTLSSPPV
PDGFR-β, sequence (P09619 33-1106): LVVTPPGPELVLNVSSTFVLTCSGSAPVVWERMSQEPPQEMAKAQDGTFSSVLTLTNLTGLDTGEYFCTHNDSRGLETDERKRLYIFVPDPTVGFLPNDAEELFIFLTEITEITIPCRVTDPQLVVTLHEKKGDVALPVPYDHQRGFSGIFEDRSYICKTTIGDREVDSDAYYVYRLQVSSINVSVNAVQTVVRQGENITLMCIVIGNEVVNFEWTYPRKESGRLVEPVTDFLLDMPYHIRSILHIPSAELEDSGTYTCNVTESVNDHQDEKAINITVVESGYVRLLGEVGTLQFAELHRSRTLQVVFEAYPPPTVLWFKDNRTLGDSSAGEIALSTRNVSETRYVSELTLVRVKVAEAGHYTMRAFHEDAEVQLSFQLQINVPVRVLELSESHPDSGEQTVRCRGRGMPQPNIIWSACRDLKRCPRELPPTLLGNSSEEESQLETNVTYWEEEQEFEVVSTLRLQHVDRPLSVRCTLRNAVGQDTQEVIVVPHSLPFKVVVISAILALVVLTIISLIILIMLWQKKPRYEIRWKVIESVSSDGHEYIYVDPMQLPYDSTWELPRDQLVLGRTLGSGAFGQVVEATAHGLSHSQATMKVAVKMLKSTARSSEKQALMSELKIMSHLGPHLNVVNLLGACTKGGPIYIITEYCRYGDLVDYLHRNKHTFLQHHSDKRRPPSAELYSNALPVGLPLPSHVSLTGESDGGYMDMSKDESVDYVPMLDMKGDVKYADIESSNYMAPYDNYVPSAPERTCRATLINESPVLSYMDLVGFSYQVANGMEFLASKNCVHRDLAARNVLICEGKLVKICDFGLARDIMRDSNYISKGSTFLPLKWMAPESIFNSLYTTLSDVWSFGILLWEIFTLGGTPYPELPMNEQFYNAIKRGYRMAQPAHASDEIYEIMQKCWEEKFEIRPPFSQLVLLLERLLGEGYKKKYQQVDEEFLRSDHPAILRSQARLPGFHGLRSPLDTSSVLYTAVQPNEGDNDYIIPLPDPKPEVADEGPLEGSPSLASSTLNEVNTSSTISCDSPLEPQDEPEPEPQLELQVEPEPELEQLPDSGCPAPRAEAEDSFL

Row | IC50 (VEGFR-2) [nM] | SMILES | GI50 (DU-145) [nM] | GI50 (SF-295) [nM] | GI50 (SNB-19) [nM] | GI50 (SK-MEL-2) [nM] | GI50 (MDA-MB-468) [nM] | GI50 (NCI-H23) [nM] | IC50 (MDA-435 cells) [nM] | GI50 (NCI-H226) [nM] | also measured
1 | 33.2 ± 5 | COc1ccc2c(c1)CCCN2c1nc(C)nc2oc(C)cc12 [Compound 10, 4-(6-methoxy-3,4-dihydroquinolin-1(2H)-yl)-2,6-dimethylfuro[2,3-d]pyrimidine] | < 10 | < 10 | < 10 | < 10 | < 10 | < 10 | 9.8 ± 0.9 | 13 | GI50 (NCI-H322M): < 10 nM; GI50 (SK-MEL-28): < 10 nM; Inhibition of colchicine binding % inhibition ± SD ([1]; 1 μM): 82 ± 3%; Inhibition of colchicine binding % inhibition ± SD ([1]; 5 μM): 96 ± 1%; GI50 (MALME-3M): < 10 nM; GI50 (A549/ATCC): < 10 nM; GI50 (A498): < 10 nM; GI50 (RPMI-8226): < 10 nM
2 | 5.8 ± 0.73 | Cc1nc(N(C)c2ccc3occc3c2)c2cc(C)oc2n1 [Compound 7, N-1-benzofuran-5-yl-N,2,6-trimethylfuro[2,3-d]pyrimidin-4-amine] | 198 | 41.7 | 93.6 | 82.4 | 31.5 | 206 | 133 ± 1.7 | 217 | IC50 (PDGFR-β; SH-SY5Y cells, phosphotyrosine ELISA): 25 ± 4.8 nM; fold better than sunitinib, PDGFR-β (PDGFR-β; vs sunitinib): about 4 fold; GI50 (SR): 62.4 nM; fold better than sunitinib, VEGFR-2 (VEGFR-2; vs sunitinib): 3 fold; Rr value (relative resistance) [2]: 1.2
